Each structure is given as a SMILES string.

This test relates to TEAD-dependent transcription. Put plainly: TEAD-dependent transcription cell-based reporter assay (MSTO-211H+12XGTIIC luciferase). On the set-up: species or system human. Conditions: Homo sapiens; MSTO-211H+12XGTIIC cell line, luciferase signal normalized to cell viability, 24 hours compound incubation; read-out: MSTO-211H GMean IC50 (uM) Cell Assay Reporter Cell Variant: TEAD. From the text:
Determine Inhibitor Activity Against TEAD-Dependent Transcription in a Cell-Based Reporter Assay
The human mesothelioma cell line MSTO-211H was stably transfected with a pGL4.21 plasmid containing a synthetic promoter with 12 copies of the GTIIC TEAD response element that drives the expression of a luciferase reporter gene^1 using Lipofectamine transfection reagent (Thermo Fisher). Transfected cells were selected using puromycin and single cell clones expressing this construct (referred to as MSTO-211H+12XGTIIC) were generated by limiting dilution. MSTO-211H cells was characterized by genetic alterations in key components of the Hippo pathway^2, resulting in up-regulation of YAP/TEAD-mediated transcription. […] To evaluate TEAD inhibitors, the MSTO-211H+12XGTIIC cell line was seeded in a 96-well plate in 50 μL of culture media at 1×10^4 cells per well and incubated at 37° C. overnight. Serial dilutions of compounds (in total volume of 50 μL of culture media) were added to the cells and incubated at 37° C. for 24 hours. Each plate included cells treated with DMSO as high controls and cells treated with 20 μM of the reference compound K-975 (a known TEAD inhibitor)^3 as low controls. Cell viability was assayed by the addition of 25 μL of CellTiter-Fluor reagent (Promega) followed by a 30-minute incubation at 37° C. and quantification of the fluorescence signal (Ex400/Em505). Subsequently, luciferase expression was assayed by the addition of 25 μL of ONE-Glo reagent (Promega) followed by a 10-minute incubation at room temperature and quantification of the luminescence signal. The luminescence signal was normalized to the fluorescence signal to correct for any loss in cell viability over the 24-hour compound incubation period. The percentage of inhibition of normalized luminescence signal, indicative of compound-mediated inhibition of TEAD-dependent transcription, at individual compound concentrations relative to high and low controls was calculated. The data were analyzed by using nonlinear regression to generate IC50 values for individual compounds.
A general note: In a reporter assay the amount or activity of a reporter protein is the signal.
One may read the IC50 as the point on the concentration scale where inhibition reaches its midpoint. Regarding `N#CC1(CC(=O)N2CCc3ccc(Oc4ccc(C(F)(F)F)cc4)cc3C2)CC1` [P-0060, 1-(2-oxo-2-(7-(4-(trifluoromethyl)phen-oxy)-3,4-dihydroiso-quinolin-2(1H)-yl)-ethyl)cyclopropane-1-carbonitrile], the concentration for half-maximal inhibition (IC50) was in the range of 0.001 to 10 µM.

On to `O=C(CCS(=O)(=O)C(F)(F)F)N1CCc2ccc(Oc3ccc(C(F)(F)F)cc3)cc2C1` [P-0061, 1-(7-(4-(trifluorometh-yl)phenoxy)-3,4-dihydro-isoquinolin-2(1H)-yl)-3-((trifluoromethyl)sulfon-yl)propan-1-one], for which the IC50 is 0.001 to 10 µM.

Turning to `Cc1noc(CCC(=O)N2CCc3ccc(Oc4ccc(C(F)(F)F)cc4)cc3C2)n1` [P-0062, 3-(3-methyl-1,2,4-oxadi-azol-5-yl)-1-(7-(4-(trifluoromethyl)phen-oxy)-3,4-dihydroisoquin-olin-2(1H)-yl)propan-1-one], the IC50 lay within 0.001 to 10 µM.

As for `Cc1nnc(CCC(=O)N2CCc3ccc(Oc4ccc(C(F)(F)F)cc4)cc3C2)o1` [P-0063, 3-(5-methyl-1,3,4-oxadi-azol-2-yl)-1-(7-(4-(trifluoromethyl)phen-oxy)-3,4-dihydroisoquin-olin-2(1H)-yl)propan-1-one], the IC50 lay in the range of 0.001 to 10 µM.

For the compound `N#Cc1ccncc1NC(=O)N1CCc2ccc(Oc3ccc(C(F)(F)F)cc3)cc2C1` [P-0064, N-(4-Cyanopyridin-3-yl)-7-(4-(trifluoromethyl)phenoxy)-3,4-dihydroisoquinoline-2(1H)-carboxamide], the IC50 lay within 0.001 to 10 µM.

As for `CN(C(=O)N1CCc2ccc(Oc3ccc(C(F)(F)F)cc3)cc2C1)C1CCS(=O)(=O)C1` (stereo not shown) [P-0065, N-(1,1-dioxidotetra-hydrothiophen-3-yl)-N-methyl-7-(4-(trifluoro-methyl)phenoxy)-3,4-dihydroisoquinoline-2(1H)-carboxamide], the concentration for half-maximal inhibition (IC50) fell in the range of 0.001 to 10 µM.

With `CN(CCC#N)C(=O)N1CCc2ccc(Oc3ccc(C(F)(F)F)cc3)cc2C1` [P-0066], the half-maximal inhibitory concentration (IC50) lay within 0.001 to 10 µM.

Regarding `O=C(CCO)N1CCc2ccc(Oc3ccc(C(F)(F)F)cc3)cc2C1` [P-0067, 3-hydroxy-1-(7-(4-(trifluoromethyl)phen-oxy)-3,4-dihydroiso-quinolin-2(1H)-yl)-propan-1-one], the concentration for half-maximal inhibition (IC50) was 0.001 to 10 µM.

Take `CNCCC(=O)N1CCc2ccc(Oc3ccc(C(F)(F)F)cc3)cc2C1` [P-0068, 3-(methylamino)-1-(7-(4-(trifluoromethyl)phen-oxy)-3,4-dihydroisoquin-olin-2(1H)-yl)propan-1-one]: the IC50 fell in the range of 0.001 to 10 µM.

For `O=C(CC1COC1)N1CCc2ccc(Oc3ccc(C(F)(F)F)cc3)cc2C1` [P-0069, 2-(oxetan-3-yl)-1-(7-(4-(trifluoromethyl)phen-oxy)-3,4-dihydroisoquin-olin-2(1H)-yl)ethan-1-one], the IC50 is 0.001 to 10 µM.

Turning to `NC1=NC(=O)C(CC(=O)N2CCc3ccc(Oc4ccc(C(F)(F)F)cc4)cc3C2)S1` (stereo not shown) [P-0070, 2-amino-5-(2-oxo-2-(7-(4-(trifluoromethyl)-phenoxy)-3,4-dihydroiso-quinolin-2(1H)-yl)ethyl)-thiazol-4(5H)-one], the IC50 is 0.001 to 10 µM.

Take `CS(=O)(=O)NCC(=O)N1CCc2ccc(Oc3ccc(C(F)(F)F)cc3)cc2C1` [P-0071, N-(2-oxo-2-(7-(4-(trifluoromethyl)phen-oxy)-3,4-dihydroisoquin-olin-2(1H)-yl)ethyl)-methanesulfonamide]: the 50% inhibitory concentration (IC50) was 0.001 to 10 µM.

`O=C(CC1CS(=O)(=O)C1)N1CCc2ccc(Oc3ccc(C(F)(F)F)cc3)cc2C1` [P-0072, 2-(1,1-dioxidothietan-3-yl)-1-(7-(4-(trifluoro-methyl)phenoxy)-3,4-dihydroisoquinolin-2(1H)-yl)ethan-1-one]: the IC50 was in the range of 0.001 to 10 µM.

On to `Nc1nc(C(=O)N2CCc3ccc(Oc4ccc(C(F)(F)F)cc4)cc3C2)cs1` [P-0073, (2-aminothiazol-4-yl)(7-(4-(trifluoromethyl)phen-oxy)-3,4-dihydroisoquin-olin-2(1H)-yl)methanone], for which the 50% inhibitory concentration (IC50) is 0.001 to 10 µM.

As for `CS(=O)(=O)c1cccnc1C(=O)N1CCc2ccc(Oc3ccc(C(F)(F)F)cc3)cc2C1` [P-0074, (3-(methylsulfonyl)pyr-idin-2-yl)(7-(4-(trifluoro-methyl)phenoxy)-3,4-dihydroisoquinolin-2(1H)-yl)methanone], the IC50 lay within 0.001 to 10 µM.

As for `CS(=O)(=O)c1ncc(C(=O)N2CCc3ccc(Oc4ccc(C(F)(F)F)cc4)cc3C2)s1` [P-0075, (2-(methylsulfonyl)thi-azol-5-yl)(7-(4-(trifluoro-methyl)phenoxy)-3,4-dihydroisoquinolin-2(1H)-yl)methanone], the half-inhibitory concentration (IC50) lay in the range of 0.001 to 10 µM.

As to `O=C(CCC(=O)C(F)(F)F)N1CCc2ccc(Oc3ccc(C(F)(F)F)cc3)cc2C1` [P-0076, 5,5,5-trifluoro-1-(7-(4-(trifluoromethyl)phen-oxy)-3,4-dihydroisoquin-olin-2(1H)-yl)pentane-1,4-dione], the IC50 is 0.001 to 10 µM.

Regarding `O=C(C1CS(=O)(=O)C1)N1CCc2ccc(Oc3ccc(C(F)(F)F)cc3)cc2C1` [P-0077, (1,1-dioxidothietan-3-yl)(7-(4-(trifluorometh-yl)phenoxy)-3,4-dihydro-isoquinolin-2(1H)-yl)-methanone], the 50% inhibitory concentration (IC50) fell in the range of 0.001 to 10 µM.

Take `CS(=O)(=O)CC(=O)N1CCc2ccc(Oc3ccc(C(F)(F)F)cc3)cc2C1` [P-0078, 2-(methylsulfonyl)-1-(7-(4-(trifluoromethyl)phen-oxy)-3,4-dihydroisoquin-olin-2(1H)-yl)ethan-1-one]: the IC50 lay within 0.001 to 10 µM.

For the compound `NC(=O)NCC(=O)N1CCc2ccc(Oc3ccc(C(F)(F)F)cc3)cc2C1` [P-0079, 1-(2-oxo-2-(7-(4-(trifluoromethyl)phen-oxy)-3,4-dihydroisoquin-olin-2(1H)-yl)ethyl)urea], the concentration for half-maximal inhibition (IC50) lay within 0.001 to 10 µM.

Consider `CS(=O)(=O)N1CC(C(=O)N2CCc3ccc(Oc4ccc(C(F)(F)F)cc4)cc3C2)C1` [P-0080, (1-(methylsulfonyl)azeti-din-3-yl)(7-(4-(trifluoro-methyl)phenoxy)-3,4-dihydroisoquinolin-2(1H)-yl)methanone], for which the 50% inhibitory concentration (IC50) lay within 0.001 to 10 µM.

As for `CS(=O)(=O)c1cc(C(=O)N2CCc3ccc(Oc4ccc(C(F)(F)F)cc4)cc3C2)ccn1` [P-0081, (2-(methylsulfonyl)pyr-idin-4-yl)(7-(4-(trifluoro-methyl)phenoxy)-3,4-dihydroisoquinolin-2(1H)-yl)methanone], the concentration for half-maximal inhibition (IC50) was in the range of 0.001 to 10 µM.

In the case of `CS(=O)(=O)c1ccc(C(=O)N2CCc3ccc(Oc4ccc(C(F)(F)F)cc4)cc3C2)cn1` [P-0082, (6-(methylsulfonyl)pyr-idin-3-yl)(7-(4-(trifluoro-methyl)phenoxy)-3,4-dihydroisoquinolin-2(1H)-yl)methanone], the half-inhibitory concentration (IC50) lay in the range of 0.001 to 10 µM.

Take `O=C1NC(=O)C(CC(=O)N2CCc3ccc(Oc4ccc(C(F)(F)F)cc4)cc3C2)N1` (stereo not shown) [P-0083, 5-(2-oxo-2-(7-(4-(trifluoromethyl)phen-oxy)-3,4-dihydroisoquin-olin-2(1H)-yl)ethyl)imid-azolidine-2,4-dione]: the IC50 was in the range of 0.001 to 10 µM.

With `CS(=O)(=O)c1ccc(C(=O)N2CCc3ccc(Oc4ccc(C(F)(F)F)cc4)cc3C2)s1` [P-0084, (5-(methylsulfonyl)thio-phen-2-yl)(7-(4-(trifluoro-methyl)phenoxy)-3,4-dihydroisoquinolin-2(1H)-yl)methanone], the half-inhibitory concentration (IC50) was 0.001 to 10 µM.

For `CS(=O)(=O)CCC(=O)N1CCc2ccc(Oc3ccc(C(F)(F)F)c(F)c3)cc2C1` [P-0085, 1-(7-(3-fluoro-4-(trifluoromethyl)phen-oxy)-3,4-dihydroisoquin-olin-2(1H)-yl)-3-(methyl-sulfonyl)propan-1-one], the concentration for half-maximal inhibition (IC50) is 0.001 to 10 µM.

In the case of `O=C(CC1CCOC1)N1CCc2ccc(Oc3ccc(C(F)(F)F)cc3)cc2C1` (stereo not shown) [P-0086, 2-(tetrahydrofuran-3-yl)-1-(7-(4-(trifluorometh-yl)phenoxy)-3,4-dihydro-isoquinolin-2(1H)-yl)-ethan-1-one], the IC50 was in the range of 0.001 to 10 µM.

`O=C(CC1CCOCC1)N1CCc2ccc(Oc3ccc(C(F)(F)F)cc3)cc2C1` [P-0087, 2-(tetrahydro-2H-pyran-4-yl)-1-(7-(4-(trifluoro-methyl)phenoxy)-3,4-dihydroisoquinolin-2(1H)-yl)ethan-1-one]: the IC50 lay within 0.001 to 10 µM.

Regarding `O=C1CC(C(=O)N2CCc3ccc(Oc4ccc(C(F)(F)F)cc4)cc3C2)CN1` (stereo not shown) [P-0088, 4-(7-(4-(trifluorometh-yl)phenoxy)-1,2,3,4-tetrahydroisoquinoline-2-carbonyl)pyrrolidin-2-one], the IC50 fell in the range of 0.001 to 10 µM.

Regarding `CS(=O)(=O)C12CC(C(=O)N3CCc4ccc(Oc5ccc(C(F)(F)F)cc5)cc4C3)(C1)C2` [P-0089, (3-(methylsulfonyl)-bicyclo[1.1.1]pentan-1-yl)(7-(4-(trifluoro-methyl)phenoxy)-3,4-dihydroisoquinolin-2(1H)-yl)methanone], the concentration for half-maximal inhibition (IC50) lay within 0.001 to 10 µM.

Turning to `CS(=O)(=O)CCC(=O)N1CCc2ccc(Oc3ccc(Cl)cc3)cc2C1` [P-0090, 1-(7-(4-chlorophenoxy)-3,4-dihydroisoquinolin-2(1H)-yl)-3-(methylsul-fonyl)propan-1-one], the half-maximal inhibitory concentration (IC50) lay within 0.001 to 10 µM.

The values are drawn from US20250129028A1, “COMPOUNDS AND METHODS FOR YAP/TEAD MODULATION AND INDICATIONS THEREFOR” (Opna Bio SA, priority 2022, published 2025).
